“And” between values parts separate entries of the source, which are not always exact repeats. Equal entries are not always repeated.

The target of one test is T1, PR (Homo sapiens, UniProt P06401).
T1 construct: alkaline phosphatase activity in T47D cells; endogenous in cells; host or cells: T47D cells
T1 sequence (P06401 1-933): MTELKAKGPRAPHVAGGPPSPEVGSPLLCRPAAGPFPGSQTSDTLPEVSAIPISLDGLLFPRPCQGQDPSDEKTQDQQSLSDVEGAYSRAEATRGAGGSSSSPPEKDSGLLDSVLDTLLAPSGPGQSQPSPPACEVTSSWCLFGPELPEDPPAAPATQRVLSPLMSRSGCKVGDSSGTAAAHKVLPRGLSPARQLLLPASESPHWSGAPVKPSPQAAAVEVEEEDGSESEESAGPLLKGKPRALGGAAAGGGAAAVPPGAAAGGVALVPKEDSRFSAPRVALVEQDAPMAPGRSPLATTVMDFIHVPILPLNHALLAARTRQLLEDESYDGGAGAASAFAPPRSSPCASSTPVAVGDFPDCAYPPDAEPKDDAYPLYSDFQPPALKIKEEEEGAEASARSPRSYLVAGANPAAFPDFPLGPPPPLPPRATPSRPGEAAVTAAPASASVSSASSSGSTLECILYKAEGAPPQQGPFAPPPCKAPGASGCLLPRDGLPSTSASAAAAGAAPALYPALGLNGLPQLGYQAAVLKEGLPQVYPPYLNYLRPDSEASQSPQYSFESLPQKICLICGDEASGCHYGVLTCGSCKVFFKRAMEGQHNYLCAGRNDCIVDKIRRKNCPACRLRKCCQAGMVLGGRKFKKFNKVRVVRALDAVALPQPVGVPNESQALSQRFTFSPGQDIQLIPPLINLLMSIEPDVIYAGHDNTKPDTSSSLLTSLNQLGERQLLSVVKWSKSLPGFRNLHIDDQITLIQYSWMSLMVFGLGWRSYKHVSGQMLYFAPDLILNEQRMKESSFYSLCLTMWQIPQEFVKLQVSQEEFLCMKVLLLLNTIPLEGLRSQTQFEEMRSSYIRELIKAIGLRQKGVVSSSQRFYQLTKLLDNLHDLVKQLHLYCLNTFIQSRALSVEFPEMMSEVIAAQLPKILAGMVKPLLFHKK
The test can be described thus: T47D cell alkaline phosphatase assay. As to conditions: T47D cells, agonist mode; read-out: Alk. Phos. EC50. Type of test: cell-based. How it is done:
(a) Purpose: To identify progestins or antiprogestins by determining a compound's effect on alkaline phosphatase activity in T47D cells. […] Cell Culture and Treatment • Frozen T47D cells were thawed in a 37° C. water bath and diluted to 280,000 cells/ml in culture medium. To each well in a 96-well plate (Falcon, Becton Dickinson Labware), 180 ? L of diluted cell suspension was added. Twenty ? L of reference or test compounds diluted in the culture medium was then added to each well. […] The cells were incubated at 37° C. in a 5% CO2humidified atmosphere for 24 hours. • Note: For high throughput screening, one concentration of each compound was tested at 0.3 mg/ml. […] Alkaline Phosphatase Enzyme Assay • At the end of treatment, the medium was removed from the plate. Fifty ? L of assay buffer I was added to each well. The plates were shaken in a titer plate shaker for 15 minutes. Then 150 ? L of assay buffer II was added to each well. […] Square root-transformed data were used for analysis of variance and nonlinear dose response curve fitting for both agonist and antagonist modes. Huber weighting was used to downweight the effects of outliers. EC50 or IC50 values were calculated from the retransformed values. JMP software (SAS Institute, Inc.) was used for both one-way analysis of variance and non-linear dose response analyses in both single dose and dose response studies.
As usually defined, the EC50 is the concentration at which the effect is half-maximal. Take `Cn1c(C#N)ccc1-c1ccc2c(c1)C(C)(C)CC2=O` [Example 3, 5-(3,3-dimethyl-1-oxo-2,3-dihydro-1H-inden-5-yl)-1-methyl-1H-pyrrole-2-carbonitrile]: the 50% effective concentration (EC50) amounted to 10 nM.

Still in this test, the particulars now being: read-out: Alk. Phos. IC50.
Broadly, the IC50 is the concentration that inhibits the measured activity by half. For the compound `CCC(=O)c1ccc(-c2ccc(C#N)n2C)cc1` [Example 9, 1-methyl-5-(4-propionylphenyl)-1H-pyrrole-2-carbonitrile], the half-inhibitory concentration (IC50) stood at 115 nM.
On the same count and under the same terms, to `Cn1c(C#N)ccc1-c1ccc2c(c1)CCCC2=O` [Example 13, 1-methyl-5-(5-oxo-5,6,7,8-tetrahydronaphthalen-2-yl)-1H-pyrrole-2-carbonitrile] belongs 27.5 nM; to `Cn1c(C#N)ccc1-c1ccc(C(=O)c2cccs2)cc1` [Example 10, 1-methyl-5-[4-(thien-2-ylcarbonyl)phenyl]-1H-pyrrole-2-carbonitrile], 266 nM.
Same read-out and setting: next, `CC1(C)CC(=O)c2ccc(-c3ccc(Cl)cc3Cl)cc21` [Example 36, 5-(2,4-dichlorophenyl)-3,3-dimethylindan-1-one]: 349 nM.
Still for that read-out and setting: next, `CC1(C)CC(=O)c2ccc(-c3ccccc3Cl)cc21` [Example 32, 5-(2-chlorophenyl)-3,3-dimethylindan-1-one]: 737 nM; `Cc1cccc(-c2ccc3c(c2)C(C)(C)CC3=O)c1` [Example 29, 3,3-dimethyl-5-(3-methylphenyl)indan-1-one]: 225 nM.
As for `CC1(C)CC(=O)c2ccc(-c3cc(Cl)ccc3Cl)cc21` [Example 35, 5-(2,5-dichlorophenyl)-3,3-dimethylindan-1-one], the concentration for half-maximal inhibition (IC50) worked out at 632 nM.
The same measure, in the same setting: to `CC1(C)CC(=O)c2ccc(-c3ccc(Cl)cc3)cc21` [Example 21, 5-(4-chlorophenyl)-3,3-dimethylindan-1-one] belongs 200 nM; to `Cc1ccc(-c2ccc3c(c2)C(C)(C)CC3=O)cc1` [Example 26, 3,3-dimethyl-5-(4-methylphenyl)indan-1-one], 877 nM.
For `CC1(C)CC(=O)c2ccc(-c3cccc(Cl)c3)cc21` [Example 28, 5-(3-chlorophenyl)-3,3-dimethylindan-1-one], the half-inhibitory concentration (IC50) is 66.3 nM.
The same measure, in the same setting: to `CC1(C)CC(=O)c2ccc(-c3ccccc3)cc21` [Example 37, 3,3-dimethyl-5-phenylindan-1-one] belongs 300 nM; to `CC1(C)CC(=O)c2ccc(-c3ccc(F)c(Cl)c3)cc21` [Example 38, 5-(3-chloro-4-fluorophenyl)-3,3-dimethylindan-1-one], 100 nM; to `Cn1c(C#N)ccc1-c1ccc(C(=O)c2ccccc2)cc1` [Example 11, 5-(4-benzoylphenyl)-1-methyl-1H-pyrrole-2-carbonitrile], 300 nM.

In another test the test system is rat uterine decidualization. The test can be described thus: Rat decidualization assay. Type of test: in vivo. As to conditions: ovariectomized Sprague-Dawley rats, s.c., average of dose-response curves. How it is done:
The animals were treated once daily for seven days. […] In all studies, a control group receiving vehicle was included. […] The contralateral horn was not scratched and served as an unstimulated control. Approximately 24 hoursfollowing the final treatment, rats were sacrificed by CO2 asphyxiation and body weight measured. Uteri were removed and trimmed of fat. Decidualized (D-horn) and control (C-horn) uterine horns were weighed separately.
Body weight: Mean total animal body weight (default-kg)
D-horn: Wet weight of decidualized uterine horn (default-kg)
C-horn: Wet weight of control uterine horn (default-kg)
Decidual response: [(D−C)/C]×100%
For `C#C[C@]1(O)CC[C@H]2[C@@H]3CCC4=CC(=O)CC[C@@H]4[C@H]3C(=C)C[C@@]21CC` [3-Ketodesogestrel], the “Estimated average EC50 for uterine wet weight” value is 0.10 mg/kg, s.c.
As to `C#C[C@]1(O)CC[C@H]2[C@@H]3CCC4=CC(=O)CC[C@@H]4[C@H]3CC[C@@]21CC` [Levonorgestrel], the “Estimated average EC50 for uterine wet weight” value is listed as 0.10 mg/kg, s.c.

The test is the same for the next values; noted with them: ovariectomized rats, p.o., with EC50 dose of progesterone (5.6 mg/kg), individual studies.
For the compound `CC#C[C@]1(O)CC[C@H]2[C@@H]3CCC4=CC(=O)CCC4=C3[C@@H](c3ccc(N(C)C)cc3)C[C@@]21C` [RU486], the “Estimated IC50 for uterine weight” value is 0.21 mg/kg, p.o. and 0.14 mg/kg, p.o.
